Reference: patent US20230406812A1, “NOVEL AMINOAROMATIC COMPOUND OR PHARMACEUTICALLY ACCEPTABLE SALT THEREOF, AND PHARMACEUTICAL COMPOSITION FOR PREVENTING OR TREATING NEURODEGENERATIVE DISEASES COMPRISING SAME AS ACTIVE INGREDIENT” (INSTITUTE FOR BASIC SCIENCE, priority 2020, published 2023)

Tested on: APP/PS1 mouse hippocampus astrocytes (GFAP)
Experiment: Immunohistochemistry (IHC) I of brain tissue, GFAP
Type: in vivo
Details: 30 mg/kg/day IP for 16 days
Protocol: The brain of the Alzheimer's animal model of Experimental Example 3 was fixed with formaldehyde, and sliced into a small thickness. The amount of cells or specific protein in the sliced brain was measured with an image by histochemical staining. In the present experimental example, an antibody labeling an astrocyte was used to measure a change in astrocytes related to dementia. The results are illustrated in FIG. 5. That is, in the present experimental example, the hippocampus of the brain was histologically stained and a change in astrocytes around dementia substance amyloid beta was observed. Glial fibrillary acidic protein (GFAP) refers to astrocytes staining, 4′,6-diamidino-2-phenylindole (DAPI) marked cell nuclei and amyloid beta substance.

| SMILES | GFAP (astrocytes) in hippocampus |
| --- | --- |
| CN(C)c1ccc(NCCc2ccc(C(F)(F)F)cc2)cc1 [Example 1] | decreased GFAP |
| CNc1ccc(NCCc2ccc(C(F)(F)F)cc2)cc1 [Example 16] | decreased GFAP |

Tested on: WT mouse (C57BL/6 mouse)
Experiment: Single toxicity assessment (lethal dose 50, LD50)
Type: in vivo
Details: C57BL/6, mouse, in vivo, ip, 300 mg/kg
Protocol: The aminoaromatic compound of the present invention, KDS12008 (Example 1), KDS12017 (Example 16), or KDS12025 (Example 21) was intraperitoneally injected at a single dose of 100, 300, and 1000 mg/kg, respectively, into a WT mouse at about 8 weeks of age (C57BL/6 mouse), and it was assessed whether the animal was dead.

| SMILES | animals died |
| --- | --- |
| CN(C)c1ccc(NCCc2ccc(C(F)(F)F)cc2)cc1 [Example 1] | about 50% |
| CNc1ccc(NCCc2ccc(C(F)(F)F)cc2)cc1 [Example 16] | about 50% |

Same assay, conditions: mouse, in vivo, ip, 1000 mg/kg

| SMILES | toxicity (death of animals) |
| --- | --- |
| CN(C)c1ccc(NCCc2ccc(C(F)(F)F)cc2)cc1 [Example 1] | showed toxicity |
| CNc1ccc(NCCc2ccc(C(F)(F)F)cc2)cc1 [Example 16] | showed toxicity |

Same assay, conditions: single dose 100 mg/kg IP, C57BL/6 mouse

| SMILES | lethal toxicity |
| --- | --- |
| CN(C)c1ccc(NCCc2ccc(C(F)(F)F)cc2)cc1 [Example 1] | lethal toxicity was not shown |
| CNc1ccc(NCCc2ccc(C(F)(F)F)cc2)cc1 [Example 16] | lethal toxicity was not shown |

Tested on: cultured astrocytes
Experiment: Cell viability (QuantiMax reagent)
Type: cell-based, C57BL/6 mice
Details: 100 μM
Protocol: (§1) Primary cortical astrocytes were prepared from C57BL/6 mice from the day of birth to day 3 since birth. The cerebral cortex was dissected without adherent meninges, minced, and dissociated into a single cell suspension by trituration. The cells were grown in Dulbecco's modified Eagle's medium (DMEM) (Invitrogen) supplemented with 25 mM glucose, 10% heat-inactivated horse serum, 10% heat-inactivated fetal calf serum (FCS), 2 mM glutamine, and 1,000 U/ml of penicillin-streptomycin. Culture was maintained at 37° C. in a humidified 5% CO2 incubator. On day 3 of the culture, cells were vigorously washed by repeated pipetting, and the medium was exchanged to remove debris and other floating cell types.
In addition, in order to investigate cell viability, the experiment was performed using a QuantiMax reagent. The cell viability was confirmed by a luminescence degree of QuantiMax, and the results are shown in B of FIG. 3.

| SMILES | cell viability |
| --- | --- |
| CN(C)c1ccc(NCCc2ccc(C(F)(F)F)cc2)cc1 [Example 1] | no effect on cell viability |

Same assay, conditions: 10 mM

| SMILES | cell viability |
| --- | --- |
| CC(=O)C(=O)[O-].[Na+] [sodium pyruvate, reference compound] | lowered cell viability |

Biological target: hemoglobin (Hb) (Homo sapiens, UniProt P68871+P69905)
Sequence (P69905 2-142 limits assumed): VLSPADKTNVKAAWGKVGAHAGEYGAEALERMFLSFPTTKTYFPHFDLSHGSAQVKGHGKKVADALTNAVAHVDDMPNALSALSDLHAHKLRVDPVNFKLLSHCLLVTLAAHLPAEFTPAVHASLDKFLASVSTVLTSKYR
Sequence (P68871 2-147 limits assumed): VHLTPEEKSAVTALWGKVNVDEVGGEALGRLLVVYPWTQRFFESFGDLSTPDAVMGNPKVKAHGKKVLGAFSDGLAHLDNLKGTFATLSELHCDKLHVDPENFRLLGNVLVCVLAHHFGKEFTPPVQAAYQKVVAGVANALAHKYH
Experiment: Hydrogen peroxide scavenging ability with hemoglobin (Amplex Red H2O2 assay)
Type: biochemical
Details: 10 μM H2O2, 80 μg/ml hemoglobin, 37° C. about 30 minutes
Protocol: Amplex Red is a means which turns into a fluorescent substance called resorufin when horse radish peroxidase (HRP) and H2O2 exist together and allows measurement of changes in H2O2, that is, H2O2 assay. […] The experiment was performed by adding hemoglobin instead of HRP to the H2O2 assay by Amplex Red (FIG. 1). The final concentration of each substance was 10 μM of H2O2 and 80 μg/ml of hemoglobin, and the aminoaromatic compound of the present invention was treated by concentration. After the reaction at 37° C. for about 30 minutes as such, fluorescence (excitation: 540 nm, emission: 580 nm) was measured by a microplate reader. At this time, it can be said that fluorescence is proportional to the amount of H2O2. Normalization was performed for each concentration based on a fluorescence value without a drug, and a value at which the fluorescence value was 50%, that is, a half maximal effective concentration (EC50) was determined by a program through statistical processing. The results are shown in the following Table 2, and AAD-2004 was used as a control group.

| EC50 [nM] | SMILES |
| --- | --- |
| 460 | COc1ccc(CCNc2ccc(N(C)C)cc2)cc1 [Example 7] |
| 520 | CNc1ccc(NCCc2ccc(Cl)cc2)cc1 [Example 22] |
| 720 | Nc1ccc(NCCc2cccc(C(F)(F)F)c2)cc1 [Example 13] |
| 210 | CNc1ccc(NCCc2ccccc2C(F)(F)F)cc1 [Example 18] |
| 190 | CNc1ccc(NCCc2cccc(C(F)(F)F)c2)cc1 [Example 19] |
| 260 | CNc1ccc(NCCc2cccc(Cl)c2)cc1 [Example 20] |
| 610 | CNc1ccc(NCCc2cccc(OC)c2)cc1 [Example 24] |
| 590 | Nc1ccc(NCCc2ccccc2Cl)cc1 [Example 15] |
| 990 | O=C(O)c1cc(NCCc2ccc(C(F)(F)F)cc2)ccc1O [AAD-2004, reference compound] |
| 780 | Nc1ccc(NCCc2cccc(F)c2)cc1 [Example 14] |
| 580 | CN(C)c1ccc(NCCc2ccccc2Cl)cc1 [Example 4] |
| 430 | CN(C)c1ccc(NCCc2cccc(Cl)c2)cc1 [Example 5] |
| 410 | CN(C)c1ccc(NCCc2ccc(F)cc2)cc1 [Example 8] |
| 300 | Nc1ccc(NCCc2ccc(C(F)(F)F)cc2)cc1 [Example 9] |
| 270 | CN(C)c1ccc(NCCc2ccc(Cl)cc2)cc1 [Example 6] |
| 560 | CN(C)c1ccc(NCCc2cccc(C(F)(F)F)c2)cc1 [Example 3] |
| 620 | CNc1ccc(NCCc2ccc(OC)cc2)cc1 [Example 23] |
| 830 | Nc1ccc(NCCc2ccccc2C(F)(F)F)cc1 [Example 12] |

| SMILES | EC50 [nM] |
| --- | --- |
| CN(C)c1ccc(NCCc2ccc(C(F)(F)F)cc2)cc1 [Example 1] | 540 |
| CNc1ccc(NCCc2ccc(C(F)(F)F)cc2)cc1 [Example 16] | 190 |

Same assay, conditions: (DMSO); 10 μM H2O2, 80 μg/ml hemoglobin, 37° C. about 30 minutes

| EC50 [nM] | SMILES |
| --- | --- |
| 300 | CNc1ccc(NCCCc2ccc(C(F)(F)F)cc2)cc1 [Example 17] |
| 540 | Nc1ccc(NCCCc2ccc(C(F)(F)F)cc2)cc1 [Example 11] |
| 300 | CN(C)c1ccc(NCCCc2ccc(C(F)(F)F)cc2)cc1 [Example 10] |

Tested on: primary cultured astrocytes
Experiment: In vitro H2O2 decomposition in primary cultured astrocytes (H2DCFDA-AM)
Type: cell-based, C57BL/6 mice
Details: 10 μM, 2 days, cultured astrocytes
Protocol: as §1
In order to verify that there was a H2O2 scavenging effect in a cell-level experiment, a cell-permeant 2′,7′-dichlorodihydrofluorescein diacetate (H2DCFDA-AM) drug which is a hydrogen peroxide probe in astrocytes was used to measure the amount of H2O2 in the cells with fluorescence (A and B of FIG. 2). […]
An experiment timeline for investigating the H2O2 decomposition effect by the aminoaromatic compound of the present invention, KDS12008 (Example 1) (10 μM) and sodium pyruvate (10 mM) for naturally occurring H2O2 in the cultured astrocytes is shown in A of FIG. 2. […] H2DCFDA-AM was a sample which reacted with H2O2 to produce green fluorescence, and was used at 10 μM for measurement. […]

| SMILES | H2O2 decomposition effect on naturally occurring H2O2 |
| --- | --- |
| CN(C)c1ccc(NCCc2ccc(C(F)(F)F)cc2)cc1 [Example 1] | statistically significant decrease in H2O2 |

Same assay, conditions: astrocytes treated at various concentrations

| SMILES | amount of H2O2 in cells (fluorescence intensity) |
| --- | --- |
| CN(C)c1ccc(NCCc2ccc(C(F)(F)F)cc2)cc1 [Example 1] | H2O2 was decreased with the concentration |

Tested on: APP/PS1 mouse
Experiment: Passive avoidance test (PAT) I
Type: in vivo
Details: 30 mg/kg/day IP for 16 days
Protocol: A passive avoidance test is an experiment to check the memory of animals, in which a weak electric stimulation was given in a dark room and it was assessed whether the animal remembered the electrical stimulation.
Since mice preferred a dark room, they have a tendency to move quickly to a dark room when they are in a bright room. […] A time to move from a bright room to a dark room (latency to dark room, sec) was measured, thereby measuring memory of a combination of the electrical stimulation and the dark room. An APP/PS1 mouse which is used as an Alzheimer's animal model was used to perform the passive avoidance test (FIG. 4). A wild type (WT) mouse was used as a control group.
On the first day of PAT, as an acquisition session, the mouse was allowed to stay in a bright room, and after a certain time, a dark room was opened and a time for the mouse to enter the dark room was measured. When the mouse entered the dark room, an electrical shock (0.5 mA, 2 sec) was given by a foothold. On the second day, as a retrieval session, the mouse was placed in a bright room, and a time for the mouse to enter a dark room was measured. At this time, the door of the dark room was opened first.
The APP/PS1 dementia mouse was intraperitoneally injected with the aminoaromatic compound of the present invention (KDS12008 (Example 1), KDS12017 (Example 16), or KDS12025 (Example 21)) (KDS12008 (Example 1) 30 mg/kg/day (30 mpk); KDS12017 (Example 16) 30 mg/kg/day (30 mpk); KDS12025 (Example 21) 3 mg/kg/day (3 mpk)) for 16 days (intraperitoneal injection, IP).

| SMILES | latency to dark room (impaired memory) |
| --- | --- |
| CN(C)c1ccc(NCCc2ccc(C(F)(F)F)cc2)cc1 [Example 1] | significantly recovered |
| CNc1ccc(NCCc2ccc(C(F)(F)F)cc2)cc1 [Example 16] | significantly recovered |

Tested on: not listed separately
Experiment: Blood brain barrier (BBB) permeability analysis (PAMPA)
Type: in vitro ADME
Details: not given
Protocol: Based on J Med Chem. 2001 Mar. 15; 44 (6):923-30., an artificial blood brain barrier (BBB) was produced by a parallel artificial membrane permeability assay (PAMPA), and the permeability of the drug was assessed.

| Papp at 50 μM [×10⁻⁶ cm/s] | SMILES |
| --- | --- |
| 3.56 | O=C(O)c1cc(NCCc2ccc(C(F)(F)F)cc2)ccc1O [AAD-2004, reference compound] |
